Measurements reported in patent US20260077069A1, “COMBINATIONS OF CONTRAST AGENTS” (BAYER AKTIENGESELLSCHAFT, priority 2022, published 2026).
Like-named read-outs stand apart in the source and are kept apart here. Marks after values point to notes of the source that are not given here.

What was measured:
[1] = 1.5 T, 37° C., Invest Radiol. 2005, cited from earlier work; for r1 plasma: bovine plasma instead of human plasma
[2] = 37° C., from Robic et al. Invest Radiol. 2019, cited from earlier work
[3] = test system: freshly isolated rat hepatocytes; assay: Uptake into freshly isolated rat hepatocytes; format: cell-based; conditions: for Inhibition Rifampicine: uptake with OATP1B1/1B3 inhibitor Rifampicine 1:1, each 100 uM
Protocol: Freshly isolated rat hepatocytes were received as described before (Papeleu P. et al. (2006) Isolation of Rat Hepatocytes. In: Phillips I. R., Shephard E. A. (eds) Cytochrome P450 Protocols. Methods in Molecular Biology, vol 320. Humana Press, Totowa, NJ. https://doi.org/10.1385/1-59259-998-2:229). The rat hepatocytes were incubated (2.5·10^5 cells/well) for 2.5 to 4 h in collagen coated 24-well plates (Fa. Beckton Dickinson Biocoat, cell environments, Collagen I Cellware) in Williams E-medium (Fa. Sigma W1878) in an incubator (37° C., 5% CO2 and […]). After incubation the adherent hepatocytes were washed once with 37° C. Hepes carbonate transport buffer (500 μL/well). The test items and RC3 were prepared from stock solutions (180 to 500 mM concentration) in Hepes carbonate transport buffer at pH 7.4 to reach a final concentration of 100 μmol Gd/L. The specific uptake of the test item or RC3 into rat hepatocytes via OATP1B1 and OATP1B3 was challenged using a known OATP1B1/1B3 inhibitor (Rifampicine, Fa. Sigma R3501, test item and inhibitor 1:1 each 100 µM final concentration). The prepared rat hepatocyte plates were incubated with test solutions (500 μL/well) at 37° C. for 10 min using a thermoshaker (Fa. Grant Bio, PHMP). Triplicates were performed for each test item. After incubating the cells were washed once with cold PBS buffer (Fa. Gibco, Dulbeccos PBS (+)). After washing the intact hepatocytes were lysed by addition of 500 μL cold 0.01% Triton-X 100 in Millipore water for 1 h. The strongly hypo-osmolar water led to cell membrane rupture and the release of the intracellular Gd-compound. After 1 h 500 μL of 10 nM Terbium ICP-MS standard was added in 2% nitric acid and 0.01% Triton 100 before the Gadolinium concentrations in the lysate were measured using ICP-MS (Agilent 8900, singleQuad, integr. Time 0.3 s, no gas, 5 replicates, Gd m/z 157, Tb m/z 159). As a reference standard RC3 is used in the same well plate. The hepatocyte uptake of the test compound is calculated relative to RC3 (resulting in the unit % of RC3).

[4] = Relaxivity measurements at 1.41 T in water and human plasma; format: physicochemical; conditions: 37° C., normalized to Gd
Protocol: Relaxivity measurements at 1.41 T were performed using a MiniSpec mq60 spectrometer (Bruker Analytik, Karlsruhe, Germany) operating at a resonance frequency of 60 MHz and a temperature of 37° C. The T1 relaxation times were determined using the standard inversion recovery (IR) method with a fixed relaxation delay of at least 5×T1. The variable inversion time (TI) was calculated automatically by the standard software of the MiniSpec mq60 (8 steps). The T2 measurements were performed by using a Carr-Purcell-Meiboom-Gill (CPMG) pulse sequence, applying a relaxation delay of at least 5×T1.
Each relaxivity measurement was performed using three different Gd concentrations (3 concentrations between 0.05 and 2 mM). The T1 and T2 relaxation times of the example compounds were measured in water and human plasma. Human plasma preparation: For each experiment fresh blood was taken from a volunteer using 10 mL citrate-tubes (Sarstedt S-Monovette 02.1067.001, 10 mL, Citrate). The 10 mL citrate-tubes were carefully inverted 10 times to mix blood and anticoagulant and centrifuged for 15 min at 1811 g at RT (Eppendorf, Centrifuge 5810R).
The relaxivities ri (where i=1, 2) were calculated based on the measured relaxation rates Ri in water and plasma:
where Ri(0) represent the relaxation rate of the respective solvent and CGd the concentration of the compound normalized to the Gadolinium. The Gadolinium concentrations of the investigated solutions were verified by Inductively Coupled Plasma Mass Spectrometry (ICP-MS Agilent 7500a, Waldbronn, Germany).

Row | SMILES | r1 plasma [1] | r1 water [1] | Inhibition Rifampicine [3] [% inhibition] | r1 human plasma [4] [L/mmol/s] | r1 water [4] [L/mmol/s] | also measured
1 | O=C([O-])CN1CCN(CC(=O)[O-])CCN([C@H](CO)[C@H](O)CO)CCN(CC(=O)[O-])CC1.[Gd+3] (racemic) [RC 1, gadobutrol] | 3.6^# L·mmol^−1·s^−1 | 2.9^# L·mmol^−1·s^−1 | – | – | – | –
2 | O=C(CCC(C(=O)[O-])N1CCN(C(CCC(=O)NCC(O)CO)C(=O)[O-])Cc2cccc(n2)CN(C(CCC(=O)NCC(O)CO)C(=O)[O-])CC1)NCC(O)CO.[Gd+3] (stereo not shown) [Compound 11] | – | – | – | – | – | r1 human plasma ([2]; human plasma): 12.8** L·mmol^−1·s^−1; r1 water ([2]; water): 12.2** L·mmol^−1·s^−1
3 | CCOCCOc1ccc(CC2CN(CC(=O)[O-])CCN(CC(=O)[O-])CCN(CC(=O)[O-])CCN2CC(=O)O)cc1.[Gd+3] (stereo not shown) [Compound 22] | – | – | 94 | 6.6 | 4.8 | –
4 | CCOc1ccc(CC2CN(CC(=O)[O-])CCN(CC(=O)[O-])CCN(CC(=O)O)CCN2CC(=O)[O-])cc1.[Gd+3] (stereo not shown) [Compound 23] | – | – | 96 | 6.2 | 4.5 | –
5 | CCCCOc1ccc(CC2CN(CC(=O)[O-])CCN(CC(=O)[O-])CCN(CC(=O)O)CCN2CC(=O)[O-])cc1.[Gd+3] (stereo not shown) [Compound 24] | – | – | 86 | 9.8 | 5.3 | –
6 | CNC[C@H](O)[C@@H](O)[C@H](O)[C@H](O)CO.O=C([O-])CN1CCN(CC(=O)[O-])CCN(CC(=O)O)CCN(CC(=O)[O-])CC1.[Gd+3] [RC 2, gadoterate meglumine] | 5.2^# L·mmol^−1·s^−1 | 3.3^# L·mmol^−1·s^−1 | – | – | – | –
7 | CCOc1ccc(CC(CN(CCN(CC(=O)[O-])CC(=O)[O-])CC(=O)[O-])N(CC(=O)[O-])CC(=O)[O-])cc1.[Gd+3].[Na+].[Na+] (stereo not shown) [RC 3, gadoxetate disodium] | 6.9^# L·mmol^−1·s^−1 | 4.7^# L·mmol^−1·s^−1 | 97 | – | – | –
8 | O=C([O-])CN(CCN(CC(=O)[O-])CC(=O)[O-])CCN(CC(=O)[O-])C(COCc1ccccc1)C(=O)[O-].[Gd+3].[H+].[H+] (stereo not shown) [RC 4, gadobenic acid, reference compound] | 6.3^# L·mmol^−1·s^−1 | 4.0^# L·mmol^−1·s^−1 | 79 | – | – | Uptake rat hepatocytes ([3]; 100 μmol Gd/L, 10 min, 37° C., Gd in lysate by ICP-MS, relative to RC3): 9 % of RC3
